Test results taken from US4368194A, “Pharmacologically active amine boranes” (The United States of America as represented by the …, priority 1981, dated 1983).
Where two headings read alike, the source gives them in different places.

How the values were obtained:
[1] = tested on: carrageenan induced edema in mouse foot pads; assay: Anti-inflammatory screen (carrageenan induced foot edema); type: in vivo, mice; details: for Anti-inflammatory Screen: 10 mg/kg × 2 intraperitoneally, mice
Description: CF1 male mice (about 30 g) were administered test drugs at 10 mg/kg in 0.05% polysorbate .80-water intraperitoneally 3 hr and 30 min prior to 0.05 ml of 2% carrageenan in 0.9% saline injected into the plantar surface of the right hind foot. Saline injected into the left hind foot served as a base line. After 3 hr, both feet were excised at the tibiotarsal (ankle) joint according to the modified (Roszkowski et al., J. Pharm. Exp. Ther., 179, 114 1971) method of Winter, resulting in an 87 mg net increase in the weight of the control animals' feet.

CF1 male mice = assay: Writhing reflex (acetic acid); type: in vivo; details: for Writhing Reflex: 20 mg/kg intraperitoneally, mice; for inhibition of the writhing reflex: text summary of Table II
Description: CF1 male mice were administered test drugs at 20 mg/kg intraperitoneally 20 min (see Hendershat et al., J. Pharmacol Exp. Ther. 125, 237 1959) prior to the administration of 0.5 ml of 0.6% acetic acid (Vingar et al., European J. PHarmacol, 37, 23 1976). After 5 min the number of stretches, characterized by repeated contractures of the abdominal musculature accompanied by extension of the hind limbs, was counted for the next 10 min. The control mice had 78 stretch reflexes per 10 min.

Sprague Dawley rats = assay: Red and white blood cell counts after 3 weeks dosing; type: in vivo; details: dosing for three weeks intraperitoneally, rats
Excerpt: Hematocrits were also obtained.

Acid phosphatase [2] = assay: Lysosomal free acid phosphatase activity, liver homogenate; type: biochemical, rats; details: 5 μmoles, in vitro; 20 min
Description: (§1) Lysosomal enzymatic assays - Sprague Dawley rats (about 160 g) were sacrificed, the liver excised, and a 10% homogenate (4x) in 0.25 M sucrose and 0.001 M (ethylenedinitrilo) tetra acetic acid, ph 7.2 was prepared.
(§2) Acid phosphatase activity (Gianetto et al., Biochem J., 59, 433 1955) was carried out by incubating with 0.1 Mβ-glycerol phosphate in 0.1 M acetate, pH 5.0 with 5 μmoles of test drugs in 1% carboxymethylcellulose (CMC) for 20 min with liver homogenate and 60 min with resuspended PMNs. Lysosome enzymes were released by 0.02% alkyl phenoxy polyethoxy ethanol-100 to obtain the total enzymatic activity. The reaction was stopped with 10% trichloroacetic acid and the solution centrifuged. Aliquots of the supernatant were assayed for inorganic phophate content by the method of Chen et al., Anal Chem., 28, 1756 (1956). Percent free acid phosphatase was calculated. Cathepsin activity was determined in an analagous manner except the substrate used was 2% azocasein (Schleuning et al., Methods in Enzymology, XLV, 330 1976) in 0.1 M acetate buffer pH 5.0. The supernatant was assayed for acid soluble peptide fragments at 366 nm. Percent free cathepsin activity was calculated.

Cathepsin [3] = assay: Lysosomal free cathepsin activity, liver homogenate; type: biochemical, rats; details: 5 μmoles; for Liver % Free Cathepsin Activity, pH5: in vitro, 20 min
Description: as §1, §2

Acid phosphatase [4] = assay: Lysosomal free acid phosphatase activity, PMNs; type: cell-based; details: 5 μmoles; for PMNs % Free Acid Phosphatase Activity, pH5: in vitro, 60 min
Description: (§3) Polymorphonuclear neutrophils (PMNs) were collected from the peritoneal cavity four hr after the injection of 35 ml of 0.5% oyster glycogen in isotonic saline (Orange et al., J. Exp. Med., 127, 767 1968). The PMNs were centrifuged down at 800 g for 20 min, washed, and resuspended in minumen essential medium (MEM) with 10% fetal calf serum pH 7.4.
as §2

Cathepsin [5] = assay: Lysosomal free cathepsin activity, PMNs; type: cell-based; details: 5 μmoles; for PMNs % Free Cathespin Activity, pH5: in vitro, 60 min
Description: as §3, §2

cAMP levels in PMNs = assay: Cyclic-3',5'-adenosine monophosphate levels (cAMP) in PMNs; type: cell-based; details: 1 h
Description: as §3
Isolated PMNs were incubated with test drugs at 5μ moles for 1 hr at 37° C. in MEM at pH 7.4. The reaction was stopped with 6% trichloroacetic acid. The cyclic-3',5'-adenosine monophosphate levels were determined by the radioimmunoassay of Gilman, Proc. Natl. Acad. Sci. (USA), 67, 305 (1970), using 3H(G)-cyclic-3',5'-adenosine monophosphate (39.8 Cu/m mol). Results were calculated in p mole/10^7 PMNs cells.

[6] = molecular target: T1, prostaglandin synthetase from beef seminal vesicle (Bos taurus, UniProt O62664); assay: Prostaglandin synthetase activity; type: biochemical; details: 10^-6 M; for activity at 1 µM: 1 h, read-out: Prostaglandin Synthesis
T1 construct: purchased; host or cells: beef seminal vesicle
T1 sequence (O62664 25-600): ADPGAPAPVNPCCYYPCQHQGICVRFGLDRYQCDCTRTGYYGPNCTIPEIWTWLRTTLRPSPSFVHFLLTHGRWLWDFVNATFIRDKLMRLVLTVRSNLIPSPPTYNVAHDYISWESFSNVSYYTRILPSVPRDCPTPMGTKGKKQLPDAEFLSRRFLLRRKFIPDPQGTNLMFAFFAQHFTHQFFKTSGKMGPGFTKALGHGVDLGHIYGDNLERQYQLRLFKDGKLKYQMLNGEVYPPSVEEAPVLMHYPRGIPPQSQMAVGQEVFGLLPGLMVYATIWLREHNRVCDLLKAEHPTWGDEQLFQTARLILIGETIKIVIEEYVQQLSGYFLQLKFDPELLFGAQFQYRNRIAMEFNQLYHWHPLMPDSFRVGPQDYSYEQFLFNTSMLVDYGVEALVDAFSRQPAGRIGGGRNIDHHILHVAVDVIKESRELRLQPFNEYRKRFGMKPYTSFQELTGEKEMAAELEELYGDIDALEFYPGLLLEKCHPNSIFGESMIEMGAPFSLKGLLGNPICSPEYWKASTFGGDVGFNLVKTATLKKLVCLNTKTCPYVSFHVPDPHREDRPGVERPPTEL
Description: After 1 hr at 37° C. the reaction was stopped with 1 N HCl and extracted with ethyl ether and evaporated. […] The plates were dried and developed in iodine vapor and with the use of prostaglandin standards the appropriate areas were scraped and counted for ^3 H content. Indometacin was used as a standard at 10^-4 M concentration. Test drugs were used at 10^-6 M.

liver mitochondria [7] = assay: Oxidative phosphorylation, succinate as substrate; type: biochemical, rats; details: 5 μmoles; for Oxidative Phosphorylation Succinate State 3: ADP stimulated respiration; for Oxidative Phosphorylation Succinate State 4: basal respiration
Description: (§4) Basal and adenosine diphosphate stimulated respiration on 10% liver homogenates was measured using succinate or αketoglutarate as substrate. See Glatt, et al., supra. The reaction vessel contained sucrose 55μ moles, KCl 22μ moles, K2 HPO4 22μ moles, test compounds at 5μ moles in 1% CMC and sodium succinate 90μ moles or αketoglutarate 60μ moles in a total volume of 1.8 ml. […] The rate of respiration was calculated at μl of O2 consumed/hr/mg wet weight of liver.

liver mitochondria [8] = assay: Oxidative phosphorylation, α-ketoglutarate as substrate; type: biochemical, rats; details: 5 μmoles; for Oxidative Phosphorylation α Ketoglutarate State 3: ADP stimulated respiration; for Oxidative Phosphorylation α Ketoglutarate State 4: basal respiration
Description: as §4

[9] = Hydrolytic, air and moisture stability
in vivo = details: mouse
[10] = pH 7.4, 5 μmoles, in vitro, read-out: PMNs cAMP Level

SMILES	Anti-inflammatory Screen [1]	Writhing Reflex (CF1 male mice)	inhibition of the writhing reflex (CF1 male mice)	alteration of the red blood or white blood cell count/cu mm (Sprague Dawley rats)	Liver % Free Acid Phosphatase Activity, pH5 (Acid phosphatase [2])	Liver % Free Cathepsin Activity, pH5 (Cathepsin [3])	PMNs % Free Acid Phosphatase Activity, pH5 (Acid phosphatase [4])	PMNs % Free Cathespin Activity, pH5 (Cathepsin [5])	activity at 5 µmol (cAMP levels in PMNs; [10])	activity at 1 µM [6]	Oxidative Phosphorylation Succinate State 3 (liver mitochondria [7])	Oxidative Phosphorylation Succinate State 4 (liver mitochondria [7])	Oxidative Phosphorylation α Ketoglutarate State 3 (liver mitochondria [8])	Oxidative Phosphorylation α Ketoglutarate State 4 (liver mitochondria [8])	inhibition of PMN cathepsin activity (Cathepsin [5])	other results
[BH3-][NH+]1CCOCC1 [Compound II, O(CH2 CH2)2 NH.BH3]	55 % Control	15 % Control	80%	no alteration	75 ± 8 % Control	107 ± 6 % Control	79 ± 5 % Control	93 ± 7 % Control	107%	100 ± 5%	66 ± 10 % Control	115 ± 15 % Control	50 ± 11 % Control	97 ± 29 % Control	–	inhibition of the carrageenan induced edema in mouse foot pads ([1]; text summary of Table II): at least 40%
C[N+](C)(C)[BH2-]C(=O)O [VIII, trimethylamine-carboxyborane]	79 % Control	29 % Control	70%	–	82 ± 5 % Control	56 ± 6 % Control	50 ± 3 % Control	14 ± 4 % Control	99%	93 ± 3%	63 ± 4 % Control	122 ± 14 % Control	70 ± 20 % Control	127 ± 22 % Control	at least 82%	inhibition of free acid phosphatase activity in PMNs (Acid phosphatase [4]): 50%; uncoupling with α-ketoglutarate as substrate (liver mitochondria [8]): uncoupling; stability to air and water/moisture [9]: stable in air and H2 O
C[N+](C)([BH2-]C#N)CCC#N [XIX, 3-Dimethylaminopropionitrile-cyanoborane]	74 % Control	89 % Control	–	no alteration	66 ± 4 % Control	15 ± 3 % Control	100 ± 9 % Control	17 ± 5 % Control	–	53 ± 7%	24 ± 7 % Control	43 ± 16 % Control	33 ± 8 % Control	105 ± 33 % Control	at least 82%	inhibition of free proteolytic cathepsin activity of liver (Cathepsin [3]): at least 75%; activity at 5 µmol (cAMP levels in PMNs; pH 7.4, read-out: PMNs cAMP Level): 199%; activation at 5 µmol (cAMP levels in PMNs; read-out: increase of cyclic adenosine monophosphate levels in PMNs): 99%; inhibition at 1 µM ([6]; read-out: inhibition of prostaglandin synthesis): > 30%; both states 3 and 4 respiration with succinate (liver mitochondria [7]): inhibited; LD50 (in vivo): 140 mg/kg
